Data on 1 compound can be found in patent publication US12440475B2, “Hodgkin lymphoma therapy” (priority 2016, dated 2025).

The subject of one experiment is R100. Nature of the experiment: ATM/ATR transcripts, R100. The class given is cell-based, human. The settings on record: bendamustine resistant R100; EDO-S101 alone.
The subject of the next experiment is KMH2. Nature of the experiment: Clonogenic survival in methylcellulose, KMH2. To be noted: lowest doses (0.1 and 0.5 μmol). The class given is cell-based, human. On the procedure:
(§1) In all examples, the human Hodgkin lymphoma-derived cell lines L428, L428-c, KMH2, L591, L540, L1236, HDLM2 and SUP-HD were obtained from Dr Steffen Junker (Aarhus University Denmark). All cell lines were cultured in Gibco RPMI 1640 medium supplemented with Glutamax, 10% FBS and antibiotics at 37° C. […] The immunophenotype, P53 status and MSI characterization of the Hodgkin lymphoma cell lines was determined using anti-CD30, CD15, CD20 and CD14 antibodies.
(§2) This test was performed on four Hodgkin lymphoma cell lines (L428, L428s, KMH2 and L540). Each was cultured with EDO-S101 at doses of 0, 0.1, 0.5, 1, 10 and 20 μmol in DMSO. The cell lines were cultured in methylcellulose (Stem cell Technologies) at a concentration of 10^5/ml at 37° C. and 5% CO2. The surviving fraction was determined by measuring the viability of colonies generated before and after exposure. Only colonies with more than 50 cells were counted. Each data point represents the average and SD from three independent experiments performed in triplicate.

A further experiment relates to L428 cells. The experiment can be described thus: L428 xenograft in NSG mice, histopathology (HE staining and CD30 immunohistochemistry). The class given is in vivo. Also on record: key to Liver, Tumor cell infiltration, focal/multifocal (score per animal) / Liver, Tumor cell necrosis/Apoptosis (score per animal) / Eye and/or periocular mucosa, periocular tumor cell infiltration, focal/multifocal/diffuse (score per animal) / Tumor/Eye, Tumor cell necrosis/appotosis (score per animal): 0: within physiological limits; 1: minimal; 2: mild; 3: moderate; 4: marked; 5: severe. The source says:
Immunodeficient NOD-SCID-gammac−/− (NSG) mice aged 5 to 6 weeks were purchased from Charles River (NOD.Cg-Prkdcscid II2rgtm1Wjl/SzJ). The mice arrived two weeks before the beginning of the experiments and were housed in micro-isolator cages during the entire course of the study. Immediately prior to the injection of Hodgkin lymphoma cells, mice were exposed to 3 Gy gamma irradiation using an IBL637 ^137Cs irradiator at a dose rate of 0.61 Gy/min. From 10^3 to 10^6 cells, either from the original cell lines or following amplification, were injected intravenously via the retro-orbital sinus. The mice were sacrificed by cervical dislocation and different organs were analysed and tumoural infiltration examined using multiple techniques.
Two independent experiments were performed to investigate the dose-effect of EDO-S101 in NSG mice eight weeks after xenografting with L428 cells as in Example 8. The aim of the protocol shown in FIG. 8B was to evaluate the effect of sequential treatment with a moderate dose of 60 mg/kg given at an interval of three weeks.
The mice were sacrificed by cervical dislocation. The sampled organs consisted of the eyes (site of injection), liver, spleen and bone marrow. Following dissection of different organs, including tumours, the first portion was used for flow cytometry (FACS) and cytogenetic analyses while the second was fixed in 4% paraformaldehyde (PFA) for immunohistochemistry (IHC). To obtain a single cell suspension, the tissues were first cut into pieces. Thereafter, the cells were physically disaggregated using an 80 μm nylon cell strainer and filtered a second time through a 70 μm nylon cell strainer (BD Biosciences, Erembodegem, Belgium).
Organs were fixed in 4% PFA, trimmed and post-fixed in 70° ethanol. They were then briefly processed using a vacuum inclusion processor and paraffin blocks were prepared. Five micrometer-thick sections were cut from these blocks and the resulting sections were stained with hemotoxylin-eosine (H&E) for histopathological analysis. In addition, IHC was carried out on of the totality of liver and spleen specimens for confirmation of the spread of engrafted cells. The search for single cells or small groups of grafted Hodgkin lymphoma cells was performed using an anti-CD30 antibody (DAKO, France; 1:40, EDTA pH9 pre-treatment) and the Ventana Discovery XT IHC system. Apoptosis and tumour necrosis were analysed.
Microscopic findings were assigned a severity score based upon the following scale: “0”=within physiological limits, “1”=minimal, “2”=mild, “3”=moderate, “4”=marked, “5”=severe. This severity score was attributed according to the size and number of observed lesions.

The subject of a further experiment is L428. The experiment can be described thus: Clonogenic survival in methylcellulose, L428. To be noted: very low doses (0.1 and 0.5 μmol). The class given is cell-based, human. As for the experimental part: as §1, §2
In experiment [1] the test system is Hodgkin lymphoma cell lines. The experiment can be described thus: Mitotic index and metaphases after EDO-S101 treatment, all cell lines. The class given is cell-based, human. As for the experimental part: The mitotic index and chromosomal aberrations for each of the cell lines were evaluated after treatment with either 20 μmol or 10 μmol EDO-S101 in DMSO. Each cell line was cultured at 37° C. in the presence of RPMI 1640 supplemented with 10% FCS and antibiotics. Colcemid (0.1 ug/ml) was added 2 h before harvesting and slides with chromosomes in metaphase were prepared following the standard methanol/acetic acid (3/1, v/v) procedure. The slides were stored at −20° C. until use.
FISH was performed using a combination of standard procedures from the recommended protocols for chromosome analysis, following telomere and centromere staining, using PNA probes. In all, 100 metaphases were scored per in vitro dose exposure.
The mitotic index was determined by measurement of the sum of all cells in prophase, metaphase, anaphase and telophase divided by the total number of cells.

Where “and” joins values, the source holds several entries; their conditions need not be identical. Identical values can stand only once.

With `Cn1c(CCCCCCC(=O)NO)nc2cc(N(CCCl)CCCl)ccc21` [EDO-S101], the ATM/ATR transcripts entry with R100 is “correct the constitutive ATM/ATR unbalance by upregulating ATR and downregulating ATM transcripts”. The “clones observed (clonogenic survival)” value with KMH2 was “only a few clones”; in the experiment with L428, “only macrophagic clones being observed”. The “tumour masses in liver” value in the experiment with L428 cells (80 mg/kg) is reported as “No tumour masses were observed in the liver”. The “tumour cell degeneration (necrosis/apoptosis)” value in the experiment on L428 cells (80 mg/kg or 60 mg/kg) is “No cell necerosis was observed”. Further, the “Eye and/or periocular mucosa, periocular tumor cell infiltration, focal/multifocal/diffuse (score per animal)” value in the experiment on L428 cells (1*60 mg/kg, 60 mg/kg) is 5 and 4 (2×) and 3; in the experiment with L428 cells (1*80 mg/kg), 5; with L428 cells (2*60 mg/kg), 4. The “Liver, Tumor cell infiltration, focal/multifocal (score per animal)” value in the experiment on L428 cells (1*60 mg/kg, 60 mg/kg) is 2 and 1 and 3; in the experiment with L428 cells (2*60 mg/kg, 60 mg/kg) it was 1 (3×) and 0 and 2. Moreover, the “Tumor/Eye, Tumor cell necrosis/appotosis (score per animal)” value in the experiment on L428 cells (1*60 mg/kg, 60 mg/kg) is 0 (2×) and 1 (2×); with L428 cells (1*80 mg/kg), 1; in the experiment with L428 cells (2*60 mg/kg, 60 mg/kg) it was 4 and 2 (2×). In addition, in the experiment with L428 cells (2*60 mg/kg), the “Liver, Tumor cell necrosis/Apoptosis (score per animal)” value turned out to be 0. Moreover, the “Tumor tissue, without connection to other organs (per animal)” value in the experiment on L428 cells (2*60 mg/kg) was “yes”. Moreover, the tumour regression result is reported as “significant tumour regression” with L428 cells (single dose of 60 mg/kg); “Significant tumour regression” with L428 cells (two administrations of 60 mg/kg three weeks apart, versus control and single 60 mg/kg). Further, the “severity of tumoural cell infiltration” value with L428 cells (single injection 60 or 80 mg/kg, or two injections of 60 mg/kg three weeks apart) is given as “significant decrease in the severity of tumoural cell infiltration”. Moreover, the metaphases observed result was “only a few metaphases of poor quality” in experiment [1] (10 μmol) and “No metaphases were observed” in experiment [1] (20 μmol, any cell line). The “sensitivity in mitotic index assay” value in experiment [1] (all Hodgkin lymphoma cell lines, 24 h of treatment) was “remarkably high sensitivity”.
